# Target: T1, human serum albumin (HSA) (Homo sapiens, UniProt P02768)
# T1 construct: gene ALB; commercial HSA from Sigma-Aldrich, full mature protein, untagged, monomeric
# Experiment: isothermal titration calorimetry, independent binding model
# Conditions: read-out: Ka (converted)
# T1 sequence (P02768 25-609): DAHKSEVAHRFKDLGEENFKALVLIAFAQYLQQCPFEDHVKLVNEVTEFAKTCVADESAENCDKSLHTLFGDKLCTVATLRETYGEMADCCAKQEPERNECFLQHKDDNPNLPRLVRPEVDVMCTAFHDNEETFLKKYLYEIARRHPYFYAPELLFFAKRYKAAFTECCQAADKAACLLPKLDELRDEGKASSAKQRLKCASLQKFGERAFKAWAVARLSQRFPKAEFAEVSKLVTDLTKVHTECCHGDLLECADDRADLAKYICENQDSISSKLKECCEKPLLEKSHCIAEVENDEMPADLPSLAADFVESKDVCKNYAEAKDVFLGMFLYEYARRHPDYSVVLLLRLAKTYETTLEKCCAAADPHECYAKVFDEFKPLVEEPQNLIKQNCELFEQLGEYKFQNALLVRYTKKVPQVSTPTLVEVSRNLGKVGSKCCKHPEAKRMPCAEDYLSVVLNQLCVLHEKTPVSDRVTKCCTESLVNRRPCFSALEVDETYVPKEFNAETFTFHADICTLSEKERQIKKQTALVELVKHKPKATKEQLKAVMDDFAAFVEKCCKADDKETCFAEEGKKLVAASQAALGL
smiles,measurement,value
"Cc1csc(N/N=C/c2ccc(O)c(O)c2)n1 [compound 5, (E)-2-(3,4-dihydroxybenzylidene)-1-(4-methylthiazol-2-yl)hydrazin-1-ium chloride]",Kd,140 µM
